Data from the NIST ThermoML archive (doi:10.1021/acs.jced.6b00430).
± gives the expanded uncertainty stated by the source.

Test: xn = mol fraction of the nth substance listed
Details: 100 kPa, Liquid; for electrical conductivity: Alternating current cell with electrodes; for viscosity: Concentric cylinders viscometry; for mass density: Vibrating tube method

O=[PH](O)O [phosphonic acid] + CN(C)C=O
electrical conductivity (298.15 K, x1 = 0.1181): 0.0572 ± 0.0057 S/m | electrical conductivity (298.15 K, x1 = 0.2984): 0.0925 ± 0.0093 S/m | electrical conductivity (298.15 K, x1 = 0.3298): 0.0934 ± 0.0093 S/m | electrical conductivity (298.15 K, x1 = 0.3968): 0.129 ± 0.013 S/m | electrical conductivity (298.15 K, x1 = 0.4479): 0.141 ± 0.014 S/m | electrical conductivity (298.15 K, x1 = 0.5761): 0.216 ± 0.022 S/m | electrical conductivity (298.15 K, x1 = 0.6316): 0.294 ± 0.029 S/m | electrical conductivity (298.15 K, x1 = 0.6554): 0.333 ± 0.033 S/m | electrical conductivity (298.15 K, x1 = 0.682): 0.411 ± 0.041 S/m | electrical conductivity (298.15 K, x1 = 0.7694): 0.663 ± 0.066 S/m | electrical conductivity (298.15 K, x1 = 0.7832): 0.702 ± 0.07 S/m | viscosity (298.15 K, x1 = 0.1973): 2.92 ± 0.18 mPa·s | viscosity (298.15 K, x1 = 0.2507): 4.75 ± 0.29 mPa·s | viscosity (298.15 K, x1 = 0.2984): 7.07 ± 0.43 mPa·s | viscosity (298.15 K, x1 = 0.3115): 7.88 ± 0.47 mPa·s | viscosity (298.15 K, x1 = 0.3491): 11.5 ± 0.7 mPa·s | viscosity (298.15 K, x1 = 0.3968): 17.6 ± 1.1 mPa·s | viscosity (298.15 K, x1 = 0.3988): 17.8 ± 1.1 mPa·s | viscosity (298.15 K, x1 = 0.4107): 20.7 ± 1.2 mPa·s | viscosity (298.15 K, x1 = 0.4479): 28.7 ± 1.7 mPa·s | viscosity (298.15 K, x1 = 0.4968): 41.6 ± 2.5 mPa·s | viscosity (298.15 K, x1 = 0.5074): 43.9 ± 2.6 mPa·s | viscosity (298.15 K, x1 = 0.5503): 62.4 ± 3.8 mPa·s | viscosity (298.15 K, x1 = 0.5761): 73.5 ± 4.4 mPa·s | viscosity (298.15 K, x1 = 0.5993): 80.5 ± 4.9 mPa·s | viscosity (298.15 K, x1 = 0.6261): 90 ± 5.5 mPa·s | viscosity (298.15 K, x1 = 0.6316): 95.2 ± 5.8 mPa·s | viscosity (298.15 K, x1 = 0.6478): 102.8 ± 6.3 mPa·s | viscosity (298.15 K, x1 = 0.6554): 103.3 ± 6.3 mPa·s | viscosity (298.15 K, x1 = 0.682): 113.5 ± 6.9 mPa·s | viscosity (298.15 K, x1 = 0.7142): 122.7 ± 7.5 mPa·s | viscosity (298.15 K, x1 = 0.7694): 139.8 ± 8.6 mPa·s | viscosity (298.15 K, x1 = 0.7832): 142.5 ± 8.8 mPa·s | mass density (298.15 K, x1 = 0.0911): 992.53 ± 10 kg/m3 | mass density (298.15 K, x1 = 0.1365): 1016.46 ± 10 kg/m3 | mass density (298.15 K, x1 = 0.1798): 1040.55 ± 10 kg/m3 | mass density (298.15 K, x1 = 0.1829): 1041.85 ± 10 kg/m3 | mass density (298.15 K, x1 = 0.2293): 1069.29 ± 10 kg/m3 | mass density (298.15 K, x1 = 0.291): 1104.79 ± 10 kg/m3 | mass density (298.15 K, x1 = 0.3298): 1129.74 ± 10 kg/m3 | mass density (298.15 K, x1 = 0.3442): 1137.78 ± 10 kg/m3 | mass density (298.15 K, x1 = 0.3712): 1154.77 ± 10 kg/m3 | mass density (298.15 K, x1 = 0.3937): 1169.25 ± 10 kg/m3 | mass density (298.15 K, x1 = 0.4107): 1182.13 ± 10 kg/m3 | mass density (298.15 K, x1 = 0.421): 1188.34 ± 10 kg/m3 | mass density (298.15 K, x1 = 0.4479): 1207.13 ± 10 kg/m3 | mass density (298.15 K, x1 = 0.4707): 1221.83 ± 10 kg/m3 | mass density (298.15 K, x1 = 0.493): 1235.89 ± 10 kg/m3 | mass density (298.15 K, x1 = 0.5074): 1244.77 ± 10 kg/m3 | mass density (298.15 K, x1 = 0.5196): 1255.1 ± 10 kg/m3 | mass density (298.15 K, x1 = 0.5429): 1270.6 ± 10 kg/m3 | mass density (298.15 K, x1 = 0.5724): 1292.1 ± 10 kg/m3 | mass density (298.15 K, x1 = 0.5925): 1306.05 ± 10 kg/m3 | mass density (298.15 K, x1 = 0.6245): 1328.62 ± 10 kg/m3 | mass density (298.15 K, x1 = 0.6554): 1355.76 ± 10 kg/m3 | mass density (298.15 K, x1 = 0.6753): 1364.54 ± 10 kg/m3 | mass density (298.15 K, x1 = 0.6923): 1378.85 ± 10 kg/m3 | mass density (298.15 K, x1 = 0.7142): 1399.02 ± 10 kg/m3 | mass density (298.15 K, x1 = 0.725): 1401.52 ± 10 kg/m3 | mass density (298.15 K, x1 = 0.7592): 1432.85 ± 10 kg/m3 | mass density (298.15 K, x1 = 0.7694): 1444 ± 10 kg/m3 | mass density (298.15 K, x1 = 0.7845): 1450.65 ± 10 kg/m3 | electrical conductivity (308.15 K, x1 = 0.1181): 0.0647 ± 0.0065 S/m | electrical conductivity (308.15 K, x1 = 0.2984): 0.116 ± 0.012 S/m | electrical conductivity (308.15 K, x1 = 0.3298): 0.119 ± 0.012 S/m | electrical conductivity (308.15 K, x1 = 0.3968): 0.169 ± 0.017 S/m | electrical conductivity (308.15 K, x1 = 0.4479): 0.19 ± 0.019 S/m | electrical conductivity (308.15 K, x1 = 0.5761): 0.301 ± 0.03 S/m | electrical conductivity (308.15 K, x1 = 0.6316): 0.41 ± 0.041 S/m | electrical conductivity (308.15 K, x1 = 0.6554): 0.476 ± 0.048 S/m | electrical conductivity (308.15 K, x1 = 0.682): 0.589 ± 0.059 S/m | electrical conductivity (308.15 K, x1 = 0.7694): 0.959 ± 0.096 S/m | electrical conductivity (308.15 K, x1 = 0.7832): 1.02 ± 0.1 S/m | viscosity (308.15 K, x1 = 0.1973): 2.49 ± 0.15 mPa·s | viscosity (308.15 K, x1 = 0.2507): 3.92 ± 0.24 mPa·s | viscosity (308.15 K, x1 = 0.2984): 5.72 ± 0.34 mPa·s | viscosity (308.15 K, x1 = 0.3115): 6.3 ± 0.38 mPa·s | viscosity (308.15 K, x1 = 0.3491): 9.06 ± 0.55 mPa·s | viscosity (308.15 K, x1 = 0.3968): 13.3 ± 0.8 mPa·s | viscosity (308.15 K, x1 = 0.3988): 14 ± 0.8 mPa·s | viscosity (308.15 K, x1 = 0.4107): 15.4 ± 0.9 mPa·s | viscosity (308.15 K, x1 = 0.4479): 20.9 ± 1.3 mPa·s | viscosity (308.15 K, x1 = 0.4968): 29.2 ± 1.8 mPa·s | viscosity (308.15 K, x1 = 0.5074): 30.3 ± 1.8 mPa·s
